Assay: Randomized double-blind crossover food effect single-dose study: safety and tolerability (flushing, feeling hot)
Type: in vivo, human
Conditions: for Subjects reporting flushing: fasted group; for Subjects reporting feeling hot more than for placebo: fed or fasted groups
Excerpt: Twenty-four healthy adult volunteers (males and females) participated in the study. Twelve of the subjects received a dosage form of Example 3, once in a fed condition and once in a fasted condition, with a two-week washout between treatments. The fasted dosing was achieved by dosing the subject following an overnight fast while the fed dosing was achieved by dosing the subject after consuming a high fat-content breakfast.
Twelve healthy adult volunteers (males and females) participated in the study. All twelve subjects received a dosage form of Example 5, once in a fed condition and once in a fasted condition, with a two-week washout between treatments. The fasted dosing was achieved by dosing the subject following an overnight fast while the fed dosing was achieved by dosing the subject after consuming a high fat-content breakfast.
Twelve healthy adult volunteers (males and females) participated in the study. All twelve subjects received a dosage form of Example 10, once in a fed condition and once in a fasted condition, with a two-week washout between treatments. The fasted dosing was achieved by dosing the subject following an overnight fast while the fed dosing was achieved by dosing the subject after consuming a high fat-content breakfast.

[1] = Example 3 dosage form, 200 mg single dose
[2] = Example 5 dosage form, 200 mg single dose
[3] = Example 10 dosage form, single dose

CCN(CC)C(=O)COC(=O)/C=C/C(=O)OC [Compound (1), (N,N-Diethylcarbamoyl)methyl methyl (2E)but-2-ene-1,4-dioate]
Severity of all adverse events [1]: mild | Tolerability during the trial [1]: well tolerated | Subjects reporting flushing (Example 3 dosage form): No subjects | Subjects reporting flushing more frequently than in the fed placebo group (Example 3 dosage form): One | Subjects reporting feeling hot more than for placebo (Example 3 dosage form): no subjects | Severity of all adverse events [2]: mild | Tolerability during the trial [2]: well tolerated | Subjects reporting flushing (Example 5 dosage form): No subjects | Subjects reporting flushing more frequently than in the fed placebo group (Example 5 dosage form): Two | Subjects reporting feeling hot more than for placebo (Example 5 dosage form): no subjects | Adverse events reported in more than one subject and more frequently than for placebo [3]: flushing and feeling hot | Severity of all adverse events [3]: mild | Tolerability during the trial [3]: well tolerated
